Experimental data: PubChem BioAssay (NCI)
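Each compound was tested at five concentrations against cells in 96-well plates for 48 hours. TGI: total growth inhibition.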

How the values were obtained:
Test in all cases: DTP human tumour cell line panel, 48 h
BT-549 breast = system: BT-549 breast
HOP-92 NSCLC = system: HOP-92 NSCLC
MOLT-4 leukemia = system: MOLT-4 leukemia
OVCAR-8 ovarian = system: OVCAR-8 ovarian
SW-620 colon = system: SW-620 colon
HT29 colon = system: HT29 colon
SNB-75 CNS = system: SNB-75 CNS
MCF7 breast = system: MCF7 breast
K-562 leukemia = system: K-562 leukemia
HCT-15 colon = system: HCT-15 colon
UO-31 renal = system: UO-31 renal
NCI/ADR-RES ovarian = system: NCI/ADR-RES ovarian
HOP-62 NSCLC = system: HOP-62 NSCLC
SF-268 CNS = system: SF-268 CNS
SK-OV-3 ovarian = system: SK-OV-3 ovarian
U251 CNS = system: U251 CNS
SNB-19 CNS = system: SNB-19 CNS
RXF 393 renal = system: RXF 393 renal
IGROV1 ovarian = system: IGROV1 ovarian
RPMI-8226 leukemia = system: RPMI-8226 leukemia
NCI-H460 lung = system: NCI-H460 lung
SF-295 CNS = system: SF-295 CNS
SN12C renal = system: SN12C renal
CCRF-CEM leukemia = system: CCRF-CEM leukemia
TK-10 renal = system: TK-10 renal
A549 NSCLC = system: A549 NSCLC
ACHN renal = system: ACHN renal
MDA-MB-435 = system: MDA-MB-435
PC-3 prostate = system: PC-3 prostate
T-47D breast = system: T-47D breast
KM12 colon = system: KM12 colon
EKVX NSCLC = system: EKVX NSCLC
OVCAR-5 ovarian = system: OVCAR-5 ovarian
NCI-H522 lung = system: NCI-H522 lung
MDA-MB-231 breast = system: MDA-MB-231 breast
NCI-H23 lung = system: NCI-H23 lung
A498 renal = system: A498 renal
NCI-H226 lung = system: NCI-H226 lung
HCC-2998 colon = system: HCC-2998 colon
UACC-257 melanoma = system: UACC-257 melanoma
COLO 205 colon = system: COLO 205 colon
MDA-N = system: MDA-N
DU-145 prostate = system: DU-145 prostate
SF-539 CNS = system: SF-539 CNS
LOX IMVI melanoma = system: LOX IMVI melanoma
OVCAR-3 ovarian = system: OVCAR-3 ovarian
SK-MEL-5 melanoma = system: SK-MEL-5 melanoma
HS 578T breast = system: HS 578T breast
SK-MEL-2 melanoma = system: SK-MEL-2 melanoma
SR leukemia = system: SR leukemia
HCT-116 colon = system: HCT-116 colon
786-0 renal = system: 786-0 renal
M14 melanoma = system: M14 melanoma
SK-MEL-28 melanoma = system: SK-MEL-28 melanoma
CAKI-1 renal = system: CAKI-1 renal
UACC-62 melanoma = system: UACC-62 melanoma

With `CN(C)CCO/N=C1/C=C2CC[C@H]3[C@@H]4CC[C@H](O)[C@@]4(C)CC[C@@H]3[C@@]2(C)CC1` the TGI (BT-549 breast) was 8.27 µM, the TGI (HOP-92 NSCLC) was 23 µM and the TGI (MOLT-4 leukemia) was > 36.3 µM. For the same compound, the TGI (OVCAR-8 ovarian) was 45.5 µM, the TGI (SW-620 colon) was 36.1 µM and the TGI (HT29 colon) was 5.53 µM. It also gave a TGI (SNB-75 CNS) of 10.4 µM, a TGI (MCF7 breast) of 86 µM and a TGI (K-562 leukemia) of 56.8 µM. For the same compound, the TGI (HCT-15 colon) was 47.7 µM, the TGI (UO-31 renal) was 28.2 µM and the TGI (NCI/ADR-RES ovarian) was 17.1 µM. For the same compound, the TGI (HOP-62 NSCLC) was > 87.4 µM, the TGI (SF-268 CNS) was 31.6 µM and the TGI (SK-OV-3 ovarian) was 44.4 µM. The TGI (U251 CNS) was 27.5 µM, the TGI (SNB-19 CNS) was > 100 µM and the TGI (RXF 393 renal) was 27.7 µM. For the same compound, the TGI (IGROV1 ovarian) was 25.2 µM, the TGI (RPMI-8226 leukemia) was > 74.9 µM and the TGI (NCI-H460 lung) was 21.9 µM. For the same compound, the TGI (SF-295 CNS) was 32.4 µM, the TGI (SN12C renal) was 32.8 µM and the TGI (CCRF-CEM leukemia) was > 21.6 µM. The TGI (TK-10 renal) was 28.6 µM, the TGI (A549 NSCLC) was > 65.2 µM and the TGI (ACHN renal) was 40.9 µM. For the same compound, the TGI (MDA-MB-435) was 12.4 µM, the TGI (PC-3 prostate) was > 100 µM and the TGI (T-47D breast) was 97.9 µM. For the same compound, the TGI (KM12 colon) was 32.4 µM, the TGI (EKVX NSCLC) was 68.6 µM and the TGI (OVCAR-5 ovarian) was > 100 µM. For the same compound, the TGI (NCI-H522 lung) was 13.7 µM, the TGI (MDA-MB-231 breast) was 44.4 µM and the TGI (NCI-H23 lung) was 33.6 µM. For the same compound, the TGI (A498 renal) was 33.7 µM, the TGI (NCI-H226 lung) was 8.87 µM and the TGI (HCC-2998 colon) was 28.1 µM. It also gave a TGI (UACC-257 melanoma) of 30.2 µM, a TGI (COLO 205 colon) of 34.9 µM and a TGI (MDA-N) of 11.2 µM. It also gave a TGI (DU-145 prostate) of 45.9 µM, a TGI (SF-539 CNS) of 13.2 µM and a TGI (LOX IMVI melanoma) of 60.2 µM. The TGI (OVCAR-3 ovarian) was 61 µM, the TGI (SK-MEL-5 melanoma) was 34.3 µM and the TGI (HS 578T breast) was 54.1 µM. For the same compound, the TGI (SK-MEL-2 melanoma) was 37.4 µM, the TGI (SR leukemia) was 19.6 µM and the TGI (HCT-116 colon) was 31.5 µM. The TGI (786-0 renal) was 27.9 µM, the TGI (M14 melanoma) was > 37 µM and the TGI (SK-MEL-28 melanoma) was 35.1 µM. For the same compound, the TGI (CAKI-1 renal) was > 66.8 µM and the TGI (UACC-62 melanoma) was 26 µM.
